Measurements published in US8637664B2, “Alkyl 4- [4- (5-oxo-2,3,5, 11a-tetrahydo-5H-pyrrolo [2, 1-c] [1,4] benzodiazepine-8-yloxy)-butyrylamino]-1H-pyrrole-2-carboxylate derivatives and related compounds for the treatment of a proliferative disease” (Spirogen SARL, priority 2005, dated 2014).

Key:
[1] = tested on: calf thymus DNA (CT-DNA); test: DNA thermal denaturation (melting) studies; format: binding; settings: CT-DNA 100 μM DNAp, compound 20 μM, 37 °C; for Induced ΔTm after incubation 0 hours: pH 7.00, 0 hours; for Induced ΔTm after incubation 4 hours: pH 7.00, 4 hours; for Induced ΔTm after incubation 18 hours: pH 7.00, 18 hours; for Induced ΔTm after incubation 72 hours: pH 7.00, 72 hours
Protocol: The PBD agents were subjected to DNA thermal melting (denaturation) studies (Gregson, S. J., et al., Journal of Medicinal Chemistry, 44(5), 737-748 (2001); Jones, G. B., et al., Anti-Cancer Drug Design, 5(3), 249-264 (1990); McConnaughie, A. W. and; Jenkins, T. C. Journal of Medicinal Chemistry, 38(18), 3488-3501 (1995)) using calf thymus DNA (CT-DNA, type-1, highly polymerized sodium salt; 42% G+C [Sigma]) at a fixed 100 μM (DNAp=50 μM bp) concentration, determined using an extinction coefficient of 6600 (M phosphate)^−1 cm^−1 at 260 nm (Manzini, G., et al., Nucleic Acids Research, 11(24), 8861-8876 (1983)). Solutions were prepared in pH 7.00±0.01 aqueous buffer containing 10 mM NaH2PO4/Na2HPO4 and 1 mM EDTA. Working solutions containing CT-DNA and the test compound (20 μM) were incubated at 37.0±0.1° C. for 0 to 18 hours using an external water bath. Samples were monitored at 260 nm using a Varian-Cary 400 Bio spectrophotometer fitted with a Peltier heating accessory. Heating was applied at a rate of 1° C./min in the 45 to 98° C. temperature range, with optical and temperature data sampling at 200 ms intervals. A separate experiment was carried out using buffer alone, and this baseline was subtracted from each DNA melting curve before data treatment. Optical data were imported into the Origin 5 program (MicroCal Inc., Northampton, Mass.) for analysis. DNA helix→coil transition temperatures (Tm) were determined at the midpoint of the normalized melting profiles using a published analytical procedure (Jones, G. B., et al., Anti-Cancer Drug Design, 5(3), 249-264 (1990)). Results are given in table 1 as the mean±standard deviation from at least three determinations. Ligand-induced alterations in DNA melting behaviour (ΔTm) are given by ΔTm=Tm(DNA+ligand)−Tm(DNA), where the Tm value determined for free CT-DNA is 67.82±0.06° C. (averaged from >90 runs). All PBD compounds were dissolved in HPLC-grade MeOH to give working solutions containing ≦0.6% v/v MeOH; Tm results were corrected for the effects of MeOH co-solvent by using a linear correction term.
The above method was also carried out on the compounds of example 2, with all compounds being incubated for up to 72 hours.

[2] = tested on: 170 bp sequence of the human Topo-IIa promoter; test: DNase I footprinting on Topo-IIa promoter (ICB1, ICB2 sites); format: binding; settings: for Concentration at which DNA binding is observed, ICB1: ICB1 site; for Concentration at which DNA binding is observed, ICB2: ICB2 site
Protocol: In a similar manner to Example 4, the affinity and sequence selectivity of certain compounds of examples 1 and 2 was evaluated by standard DNA footprinting on a 170 bp sequence of the human Topo-IIa promoter, in accordance with the technique described in Martin, C., et al.
Selected results are shown in FIG. 9, wherein the concentrations of the lanes were 0, 1.6, 8, 40, 200, 1000, 5000 and 25000 nM in each case.
The footprinting results allowed the identification of compounds that could potentially disrupt transcription factor binding at the ICB1 and ICB2 sites. […] These compounds are detailed below in table 3, showing the concentrations (μM) at which the PBD-heterocycle conjugates bind at ICB1 and ICB2.

[3] = tested on: NF-Y binding at ICB1 of Topoisomerase IIα promoter; test: NF-Y gel shift assay (EMSA) at ICB1
[4] = tested on: NF-Y binding at ICB2 of Topoisomerase IIα promoter; test: NF-Y gel shift assay (EMSA) at ICB2
[5] = tested on: human c-myc oncogene; settings: read-out: IC50 to arrest PCR of the c-myc gene; cited from earlier work
[6] = tested on: HIV-1 LTR; settings: read-out: IC50 to arrest PCR of the HIV gene; cited from earlier work

## COC(=O)c1cc(NC(=O)c2cc(NC(=O)c3csc(NC(=O)CCCOc4cc5c(cc4OC)C(=O)N4CCC[C@H]4C=N5)n3)cn2C)cn1C [Compound 69]
[1]
  Induced ΔTm after incubation 0 hours: 16.4 °C
  Induced ΔTm after incubation 4 hours: 17.4 °C
  Induced ΔTm after incubation 18 hours: 18.2 °C
  Induced ΔTm after incubation 72 hours: 18.5 °C
[2]
  Concentration at which DNA binding is observed, ICB1: 5 µM
  Concentration at which DNA binding is observed, ICB2: 5 µM
[3]
  Lowest concentration at which NF-Y binding inhibition was observed: 50 µM
[4]
  Lowest concentration at which NF-Y binding inhibition was observed: 10 µM

## CCOC(=O)c1nc(NC(=O)c2nc(NC(=O)c3cc(NC(=O)CCCOc4cc5c(cc4OC)C(=O)N4CCC[C@H]4C=N5)cn3C)cn2C)cn1C [Compound 91]
[1]
  Induced ΔTm after incubation 0 hours: 16.8 °C
  Induced ΔTm after incubation 4 hours: 17.6 °C
  Induced ΔTm after incubation 18 hours: 18.7 °C
  Induced ΔTm after incubation 72 hours: 18.8 °C
[2]
  Concentration at which DNA binding is observed, ICB1: 5 µM
  Concentration at which DNA binding is observed, ICB2: 5 µM
[3]
  Lowest concentration at which NF-Y binding inhibition was observed: did not inhibit NF-Y binding
[4]
  Lowest concentration at which NF-Y binding inhibition was observed: 50 µM

## Cn1cc(NC(=O)c2cc(NC(=O)c3cc(NC=O)cn3C)cn2C)cc1C(=O)NCCC(=N)N [distamycin A]
[5]
  IC50: 25 µM
[6]
  IC50: 50 µM
